Read-outs that look alike come from different tables or passages of the source.
Assays:
Tribolium castaneum = system: Tribolium castaneum
Description: A total of 20 chemical standards were evaluated for their insecticidal activity against the stored grain pest, Tribolium castaneum. These chemical standards represented compounds in the volatolome of Daldinia sp. or were structural analogues of these compounds (Table 5). […] The insect pest was inoculated on to one half of the Petri plate by placing 4 insects onto feed (wheat flour and yeast). A chemical standard was then aliquoted (5 microlitre) on to the other half of the Petri plate on filter paper. Plates were immediately sealed with Parafilm®, covered in aluminium foil (i.e. in the dark) and maintained at room temperature. The mortality of insects was monitored daily by assessing insect movement as an indicator of mortality. The mortality was calculated by comparing the number of dead insects to the total number in the plate, and expressed as percentage mortality (Tables 6). Data were analysed using ANOVA as performed in GenStat, version 14. The experiment was fully randomised with 5 replicates for each endophyte.

Pseudomonas syringae = experiment: Bactericidal bioassay, compounds alone or in synergy; type: cell-based; conditions: for Growth Scale: compound alone, 10 μL, 3 days, 2 equivalent growth to control, 1 less growth, 0 no growth; for activity against P. syringae: used alone (acetaldehyde, isovaleraldehyde: alone or in combination)
Text: A bactericidal bioassay was established to evaluate the effect of the most insecticidal candidate compounds against the plant pathogenic bacterium Pseudomonas syringae, when applied alone or in synergy with other compounds from the volatolome of Daldinia sp. The pathogen was inoculated on to one third of the Petri plate by streaking bacterial cells from an actively growing culture (overnight) on to nutrient agar (NA). A candidate compound was then aliquoted (10 microlitres—except Acetaldehyde: 20 microlitres due to high volatility) onto another third of the Petri plate on filter paper. […] An untreated control was included and consisted of no compounds.

T. castaneum = system: T. castaneum
Description: The bioassays were conducted in 1 litre Schott bottles. The insect pest was inoculated into the bioassay by placing 9-12 insects onto feed (wheat flour and yeast). The biocidal compounds were then aliquoted into the bioassay at volumes ranging from 20-200 microlitres, ensuring no direct contact with the insect. Bottles were immediately sealed with Parafilm® and maintained at room temperature. The mortality of insects was monitored daily for three days exposure, by assessing insect movement as an indicator of mortality. The mortality was calculated by comparing the number of dead insects to the total number in the bioassay, and expressed as percentage mortality. Data were analysed using ANOVA as performed in GenStat, version 14. The experiment was fully randomised with 4 replicates for each endophyte.

Fusarium verticillioides = experiment: Fungicidal bioassay, compounds alone or in synergy; type: cell-based; conditions: for % Inhibition (v control): 4 days; for fungicidal activity against F. verticillioides: in isolation; for inhibition of growth of the pathogen: in isolation and in combination with any of the compounds tested
Text: A fungicidal bioassay was established to evaluate the effect of key compounds from the volatolome of Daldinia sp. against the plant pathogenic fungus, Fusarium verticillioides, when applied alone and in synergy with other compounds from the volatolome of Daldinia sp. The pathogen was inoculated on to one third of the Petri plate by placing an agar plug of actively growing hyphae onto PDA. Candidate compounds were then aliquoted (10 microlitres) on to another third of the Petri plate on filter paper. […] After 4 days the growth of the pathogen was determined by measuring the radius of the colony (on two alternate planes).

C1=CCCCC=C1 [1,3 Cycloheptadiene, 1,3-cycloheptadiene]
% Mortality Day 1 (Tribolium castaneum; 5 microlitre, Day 1): 12.5%
% Mortality Day 2 (Tribolium castaneum; 5 microlitre, Day 2): 20.8%
% Mortality Day 3 (Tribolium castaneum; 5 microlitre, Day 3): 27.5%
% Mortality Day 4 (Tribolium castaneum; 5 microlitre, Day 4): 27.5%

CC1=CCC=CC1 [1-Methyl-1,4-cyclohexadiene]
% Mortality Day 1 (Tribolium castaneum; 5 microlitre, Day 1): 0.0%
% Mortality Day 2 (Tribolium castaneum; 5 microlitre, Day 2): 0.0%
% Mortality Day 3 (Tribolium castaneum; 5 microlitre, Day 3): 0.0%
% Mortality Day 4 (Tribolium castaneum; 5 microlitre, Day 4): 0.0%

CC(=O)C(C)=O [2,3 Butanedione, 2,3-butanedione]
% Mortality Day 1 (Tribolium castaneum; in vivo): 0.0%
% Mortality Day 2 (Tribolium castaneum; in vivo): 0.0%
% Mortality Day 3 (Tribolium castaneum; in vivo): 0.0%
% Mortality Day 4 (Tribolium castaneum; in vivo): 0.0%
mortality grouping in title of Table 5 (Tribolium castaneum; in vivo): 1,4-cyclohexadiene, Toluene, 2,3 Butanedione, Ethanol: 0% mortality).

CCC(C)CO (stereo not shown) [2-Methyl-1-butanol]
% Mortality Day 1 (Tribolium castaneum; 5 microlitre, Day 1): 80.0%
% Mortality Day 2 (Tribolium castaneum; 5 microlitre, Day 2): 80.0%
% Mortality Day 3 (Tribolium castaneum; 5 microlitre, Day 3): 80.0%
% Mortality Day 4 (Tribolium castaneum; 5 microlitre, Day 4): 80.0%

CCCC(C)O (stereo not shown) [2-Pentanol]
% Mortality Day 1 (Tribolium castaneum; 5 microlitre, Day 1): 0.0%
% Mortality Day 2 (Tribolium castaneum; 5 microlitre, Day 2): 0.0%
% Mortality Day 3 (Tribolium castaneum; 5 microlitre, Day 3): 0.0%
% Mortality Day 4 (Tribolium castaneum; 5 microlitre, Day 4): 0.0%

CC(C)CCO [3-Methyl-1-butanol]
% Mortality Day 1 (Tribolium castaneum; in vivo): 45.0%
% Mortality Day 2 (Tribolium castaneum; in vivo): 45.0%
% Mortality Day 3 (Tribolium castaneum; in vivo): 50.0%
% Mortality Day 4 (Tribolium castaneum; in vivo): 50.0%

CCC(O)CC [3-Pentanol]
Growth Scale (Pseudomonas syringae): 2
activity against P. syringae (Pseudomonas syringae): did not exhibit any activity
mortality after a 1 day exposure, 20 μL (T. castaneum; in vivo): 100%
mortality after a 1 day exposure, 50 μL (T. castaneum; in vivo): 100%
mortality after a 1 day exposure, 100 μL (T. castaneum; in vivo): 100%
mortality after a 1 day exposure, 150 μL (T. castaneum; in vivo): 100%
mortality after a 1 day exposure, 200 μL (T. castaneum; in vivo): 100%
mortality after one day (T. castaneum; in vivo): 100%
% Inhibition (v control) (Fusarium verticillioides; compound alone, 10 uL): 47.3%
fungicidal activity against F. verticillioides (Fusarium verticillioides): moderate fungicidal activity
% Mortality Day 1 (Tribolium castaneum; 5 microlitre, Day 1): 100.0%
% Mortality Day 2 (Tribolium castaneum; 5 microlitre, Day 2): 100.0%
% Mortality Day 3 (Tribolium castaneum; 5 microlitre, Day 3): 100.0%
% Mortality Day 4 (Tribolium castaneum; 5 microlitre, Day 4): 100.0%

CC(=O)CCO [4-Hydroxy-2-butanone]
% Mortality Day 1 (Tribolium castaneum; 5 microlitre, Day 1): 4.0%
% Mortality Day 2 (Tribolium castaneum; 5 microlitre, Day 2): 4.0%
% Mortality Day 3 (Tribolium castaneum; 5 microlitre, Day 3): 4.0%
% Mortality Day 4 (Tribolium castaneum; 5 microlitre, Day 4): 4.0%

CC1CC=CCC1 (stereo not shown) [4-Methylcyclohexene]
% Mortality Day 1 (Tribolium castaneum; 5 microlitre, Day 1): 4.0%
% Mortality Day 2 (Tribolium castaneum; 5 microlitre, Day 2): 13.7%
% Mortality Day 3 (Tribolium castaneum; 5 microlitre, Day 3): 17.7%
% Mortality Day 4 (Tribolium castaneum; 5 microlitre, Day 4): 17.7%

CC=O [Acetaldehyde]
activity against P. syringae (Pseudomonas syringae): high bactericidal activity
mortality after a 1 day exposure, 20 μL (T. castaneum; Volume 20 μL in 1 litre bottle, 1 day): 2.3%
mortality after a 1 day exposure, 50 μL (T. castaneum; Volume 50 μL in 1 litre bottle, 1 day): 28.3%
mortality after a 1 day exposure, 100 μL (T. castaneum; Volume 100 μL in 1 litre bottle, 1 day): 98.2%
mortality after a 1 day exposure, 150 μL (T. castaneum; Volume 150 μL in 1 litre bottle, 1 day): 100%
mortality after a 1 day exposure, 200 μL (T. castaneum; Volume 200 μL in 1 litre bottle, 1 day): 100%
mortality after a 1 day exposure (T. castaneum; volumes ranging from 100-200 microlitres): 98.2-100.0%
fungicidal activity against F. verticillioides (Fusarium verticillioides): high fungicidal activity
inhibition of growth of the pathogen (Fusarium verticillioides): 100%
% Mortality Day 1 (Tribolium castaneum; 5 microlitre, Day 1): 36.0%
% Mortality Day 2 (Tribolium castaneum; 5 microlitre, Day 2): 36.0%
% Mortality Day 3 (Tribolium castaneum; 5 microlitre, Day 3): 36.0%
% Mortality Day 4 (Tribolium castaneum; 5 microlitre, Day 4): 36.0%

CC(=O)C(C)O (stereo not shown) [Acetoin, acetoin]
Growth Scale (Pseudomonas syringae): 2
activity against P. syringae (Pseudomonas syringae): did not exhibit any activity
mortality after a 1 day exposure (T. castaneum; in vivo): 100%
mortality after a 1 day exposure, 20 μL (T. castaneum; in vivo): 3%
mortality after a 1 day exposure, 50 μL (T. castaneum; in vivo): 100%
mortality after a 1 day exposure, 100 μL (T. castaneum; in vivo): 100%
mortality after a 1 day exposure, 150 μL (T. castaneum; in vivo): 100%
mortality after a 1 day exposure, 200 μL (T. castaneum; in vivo): 100%
% Inhibition (v control) (Fusarium verticillioides; compound alone, 10 uL): 0%
fungicidal activity against F. verticillioides (Fusarium verticillioides): no activity
% Mortality Day 1 (Tribolium castaneum; 5 microlitre, Day 1): 100.0%
% Mortality Day 2 (Tribolium castaneum; 5 microlitre, Day 2): 100.0%
% Mortality Day 3 (Tribolium castaneum; 5 microlitre, Day 3): 100.0%
% Mortality Day 4 (Tribolium castaneum; 5 microlitre, Day 4): 100.0%

O=Cc1ccccc1 [Benzaldehyde]
% Mortality Day 1 (Tribolium castaneum; 5 microlitre, Day 1): 0.0%
% Mortality Day 2 (Tribolium castaneum; 5 microlitre, Day 2): 0.0%
% Mortality Day 3 (Tribolium castaneum; 5 microlitre, Day 3): 0.0%
% Mortality Day 4 (Tribolium castaneum; 5 microlitre, Day 4): 0.0%

CCCC=O [Butyraldehyde]
% Mortality Day 1 (Tribolium castaneum; in vivo): 31.5%
% Mortality Day 2 (Tribolium castaneum; in vivo): 39.5%
% Mortality Day 3 (Tribolium castaneum; in vivo): 39.5%
% Mortality Day 4 (Tribolium castaneum; in vivo): 39.5%

CCCC(=O)O [Butyric acid]
% Mortality Day 1 (Tribolium castaneum; 5 microlitre, Day 1): 0.0%
% Mortality Day 2 (Tribolium castaneum; 5 microlitre, Day 2): 0.0%
% Mortality Day 3 (Tribolium castaneum; 5 microlitre, Day 3): 6.9%
% Mortality Day 4 (Tribolium castaneum; 5 microlitre, Day 4): 6.9%

CCO [Ethanol]
% Mortality Day 1 (Tribolium castaneum; in vivo): 0.0%
% Mortality Day 2 (Tribolium castaneum; in vivo): 0.0%
% Mortality Day 3 (Tribolium castaneum; in vivo): 0.0%
% Mortality Day 4 (Tribolium castaneum; in vivo): 0.0%
mortality grouping in title of Table 5 (Tribolium castaneum; in vivo): 1,4-cyclohexadiene, Toluene, 2,3 Butanedione, Ethanol: 0% mortality).

CC(C)CC=O [Isovaleraldehyde]
Growth Scale (Pseudomonas syringae): 0.25
activity against P. syringae (Pseudomonas syringae): high bactericidal activity
mortality after a 1 day exposure (T. castaneum; in vivo): 100%
mortality after a 1 day exposure, 20 μL (T. castaneum; in vivo): 3%
mortality after a 1 day exposure, 50 μL (T. castaneum; in vivo): 100%
mortality after a 1 day exposure, 100 μL (T. castaneum; in vivo): 100%
mortality after a 1 day exposure, 150 μL (T. castaneum; in vivo): 100%
mortality after a 1 day exposure, 200 μL (T. castaneum; in vivo): 100%
% Inhibition (v control) (Fusarium verticillioides; compound alone, 10 uL): 100.0%
Activity (fungistatic or fungicidal) (Fusarium verticillioides; compound alone, 10 uL, plug on fresh PDA plate): Fungicidal
fungicidal activity against F. verticillioides (Fusarium verticillioides): high fungicidal activity
inhibition of growth of the pathogen (Fusarium verticillioides): 100%
% Mortality Day 1 (Tribolium castaneum; 5 microlitre, Day 1): 100.0%
% Mortality Day 2 (Tribolium castaneum; 5 microlitre, Day 2): 100.0%
% Mortality Day 3 (Tribolium castaneum; 5 microlitre, Day 3): 100.0%
% Mortality Day 4 (Tribolium castaneum; 5 microlitre, Day 4): 100.0%

C=C1CCCCC1 [Methylenecyclohexane]
% Mortality Day 1 (Tribolium castaneum; 5 microlitre, Day 1): 8.0%
% Mortality Day 2 (Tribolium castaneum; 5 microlitre, Day 2): 8.0%
% Mortality Day 3 (Tribolium castaneum; 5 microlitre, Day 3): 16.0%
% Mortality Day 4 (Tribolium castaneum; 5 microlitre, Day 4): 16.0%

C1=CC2(C=C1)CC2 [Spiro[2.4]hepta-4,6-diene]
% Mortality Day 1 (Tribolium castaneum; 5 microlitre, Day 1): 87.1%
% Mortality Day 2 (Tribolium castaneum; 5 microlitre, Day 2): 100.0%
% Mortality Day 3 (Tribolium castaneum; 5 microlitre, Day 3): 100.0%
% Mortality Day 4 (Tribolium castaneum; 5 microlitre, Day 4): 100.0%

From patent publication US20180305657A1, “Bioactive Fungi” (Agriculture Victoria Services PTY LTD, priority 2015, published 2018)
